Test results: publication PMC6928678, “Simplified Head-to-Tail Cyclic Polypeptides as Biomaterial-Associated Antimicrobials with Endotoxin Neutralizing and Anti-Inflammatory Capabilities” (International Journal of Molecular Sciences, 2019)
In brackets after ≈: the same amount, converted by molar mass. Read-outs that look alike come from different tables or passages of the source. Where a SMILES comes first, the peptide text is derived from it.

What was measured:
[1] = RP-HPLC used as measure of hydrophobicity; 4.6 mm × 250 mm Venusil MP C18-5 column, 220 nm, linear acetonitrile gradient 15% to 45% in 30 min, 0.1% trifluoroacetic acid, 1 mL/min
Excerpt: In this experiment, cyclic, linear and D-proline antimicrobial peptides were designed based on the IR-rich template sequence (IR)nP(IR)nP (n = 1, 2 and 3). […] The […] molecular weights of the peptides were identified using mass spectrometry. […] The hydrophobicity of the peptides in solution is dependably mirrored by the HPLC retention times.

[2] = test system: E. coli 25922; assay: microbe, parasite or virus in culture; type: cell-based, Escherichia coli
Method: (§1) The test strains, including Gram-negative E. coli ATCC25922, E. coli ATCC 1005, S. typhimurium C7731, P. aeruginosa ATCC 27853, S. Typhimurium 14028, Gram-positive S. aureus ATCC29213, S. aureus ATCC 25923, S. epidermidis ATCC 12228 and S. aureus 43300, were obtained from the School of Veterinary Medicine, Northeast Agricultural University (Harbin, China).
(§2) Briefly, the bacteria were incubated overnight at 37 °C with constant shaking at 220 rpm, then were transferred to new MH broth (MHB) medium until they reached the logarithmic phase of growth. The bacteria were then diluted to 10^5 (CFU)/mL in MHB. The peptides were dissolved and diluted in 0.01% acetic acid and 0.2% bovine serum albumin (BSA) at various concentrations (0.5–128 μM) in each well of sterile 96-well plates and incubated for 20 h at 37 °C. […] The test was repeated three times.

[3] = test system: E. coli UB 1005; assay: microbe, parasite or virus in culture; type: cell-based, Escherichia coli
Method: as §1, §2

[4] = test system: S. aureus 25923; assay: microbe, parasite or virus in culture; type: cell-based, Staphylococcus aureus
Method: as §1, §2

[5] = test system: S. aureus 29213; assay: microbe, parasite or virus in culture; type: cell-based, Staphylococcus aureus
Method: as §1, §2

[6] = test system: MRSA43300; assay: microbe, parasite or virus in culture; type: cell-based, Methicillin-resistant Staphylococcus aureus
Method: as §1, §2

[7] = test system: P. aeruginosa 27853; assay: microbe, parasite or virus in culture; type: cell-based; conditions: read-out: MIC
Method: as §1, §2

[8] = test system: S. epidermidis 12228; assay: microbe, parasite or virus in culture; type: cell-based
Method: as §1, §2

[9] = test system: S. typhimurium 14028; assay: microbe, parasite or virus in culture; type: cell-based
Method: as §1, §2

[10] = test system: S. typhimurium 7731; assay: microbe, parasite or virus in culture; type: cell-based
Method: as §1, §2

[11] = test system: gram-negative strains tested; assay: Geometric mean of MICs, gram-negative strains; type: cell-based; conditions: 5 gram-negative strains; >128 apparently counted as 256; read-out: nGM (–), geometric mean of the MICs against gram-negative strains
Method: as §2

[12] = test system: gram-positive strains tested; assay: organism not typed; type: cell-based; conditions: for pGM (+), geometric mean of the MICs against gram-positive strains: 20 h
Method: as §2

[13] = test system: all the 9 bacteria tested; assay: Geometric mean of MICs, all 9 bacteria; type: cell-based; conditions: for tGM, geometric mean of the MICs against all the 9 bacteria: all 9 bacteria tested
Method: as §2

[14] = test system: human red blood cells (hRBCs); assay: Hemolysis assay; type: cell-based
Method: Figure 2 (A) Hemolytic activity of the engineered peptides against human red blood cells (hRBCs). The hRBCs were incubated with equal amounts of the respective peptides dissolved in PBS for 1 h at 37 °C. (B) Cytotoxicity of the engineered peptides against RAW264.7. […] Data shown are three independent experiments.
The hemolytic activity of the peptides is determined by measuring the amount of hemoglobin released during the lysis of human erythrocytes at different concentrations of AMPs. Briefly, fresh, healthy human red blood cells (hRBCs) were collected and then washed three times with phosphate-buffered saline (PBS) buffer (pH 7.2) and centrifuged at 1000× g for 5 min. Each 50 µL sample of hRBCs was incubated with 50 µL of the respective peptide dissolved in PBS in a well of a 96-well plate for 1 h at 37 °C. After incubation, the samples were centrifuged at 1000× g for 5 min and the supernatants (50 μL) were transferred to a new 96-well microplate. The release of hemoglobin was measured by monitoring the OD at 570 nm (Tecan, Salzburg, Austria). Negative (hRBCs without AMP treatment) and positive (hRBCs treated with 0.1% TritonX-100) controls were used. The concentration of peptide that caused 5% hemolysis was considered the minimal hemolysis concentration (MHC). The test was repeated three times. The percent hemolysis was calculated using the following formula:(2) Percent hemolysis=A−A0/At−A0× 100% A0 and At represent 0% and 100% hemolysis as measured in 10 mM PBS and 0.2% Triton X-100, respectively.

[15] = test system: Gram-positive and Gram-negative bacteria; assay: Antimicrobial assay (MIC), statement over all strains; type: cell-based; conditions: all strains tested
Method: as §2

[16] = test system: bacteria versus human red blood cell; assay: Selectivity index (MHC5/GM); conditions: 256 μM used for MHC5 when no hemolysis at 128 μM
Method: To investigate the cell selectivity of novel antimicrobials, the total selectivity index (TSI) was calculated as the ratio of the minimal hemolysis concentration (MHC) to the geometric mean (GM) of the MIC values (Table 2).

Structure (SMILES)	RT (retention time) [1]	MIC ([2]; 25922, 20 h)	MIC ([3]; UB 1005, 20 h)	MIC ([4]; 25923, 20 h)	MIC ([5]; 29213, 20 h)	MIC ([6]; 20 h)	MIC ([7]; 27853, 20 h)	MIC ([8]; 12228, 20 h)	MIC ([9]; 14028, 20 h)	MIC ([10]; 7731, 20 h)	MIC [11]	pGM (+), geometric mean of the MICs against gram-positive strains [12]	tGM, geometric mean of the MICs against all the 9 bacteria [13]	MHC5, minimum hemolytic concentration that induced ≥5% hemolysis ([14]; red cells of human, 1 h)	also measured
CC[C@H](C)[C@@H]1NC(=O)[C@@H]2CCCN2C(=O)[C@H](CCCNC(=N)N)NC(=O)[C@H]([C@@H](C)CC)NC(=O)[C@@H]2CCCN2C(=O)[C@H](CCCNC(=N)N)NC1=O [OIR1] (cyclo(IRPIRP))	10.32 min	>128 µM	>128 µM	>128 µM	>128 µM	>128 µM	>128 µM	>128 µM	>128 µM	>128 µM	256 µM (≈ 188 µg/mL)	256 µM	256 µM	>128 µM	MIC in the presence of Gram-positive and Gram-negative bacteria [15]: greater than 128 μM
CC[C@H](C)[C@@H]1NC(=O)[C@H](CCCNC(=N)N)NC(=O)[C@H]([C@@H](C)CC)NC(=O)[C@@H]2CCCN2C(=O)[C@H](CCCNC(=N)N)NC(=O)[C@H]([C@@H](C)CC)NC(=O)[C@H](CCCNC(=N)N)NC(=O)[C@H]([C@@H](C)CC)NC(=O)[C@@H]2CCCN2C(=O)[C@H](CCCNC(=N)N)NC1=O [OIR2] (cyclo(IRIRPIRIRP))	10.66 min	64 µM (≈ 81.4 µg/mL)	64 µM (≈ 81.4 µg/mL)	>128 µM	>128 µM	>128 µM	>128 µM	>128 µM	>128 µM	>128 µM	147.0 µM (≈ 187 µg/mL)	256 µM	188.1 µM	>128 µM	–
CC1(C)S[C@@H]2[C@H](NC(=O)Cc3ccccc3)C(=O)N2[C@H]1C(=O)O [PS, Penicillin Sodium, reference compound]	–	–	–	–	–	–	–	–	–	–	24.3 µM	–	–	–	MIC ([2]; Escherichia coli, E. coli 25922, MHB, 10^5 CFU/mL, 0.5–128 μM peptide, 20 h 37 °C, OD 492 nm, repeated three times): 128 µM; MIC ([3]; Escherichia coli, UB1005, E. coli UB 1005, MHB, 10^5 CFU/mL, 20 h 37 °C, repeated three times): 64 µM; MIC ([4]; Staphylococcus aureus, S. aureus 25923, MHB, 10^5 CFU/mL, 20 h 37 °C, repeated three times): 32 µM; MIC ([5]; Staphylococcus aureus, S. aureus 29213, MHB, 10^5 CFU/mL, 20 h 37 °C, repeated three times): 64 µM; MIC ([6]; Staphylococcus aureus, MRSA43300, MHB, 10^5 CFU/mL, 20 h 37 °C, repeated three times): 32 µM; MIC ([7]; Pseudomonas aeruginosa, P. aeruginosa 27853, MHB, 10^5 CFU/mL, 20 h 37 °C, repeated three times): 128 µM; MIC ([8]; Staphylococcus epidermidis, S. epidermidis 12228, MHB, 10^5 CFU/mL, 20 h 37 °C, repeated three times): 0.5 µM; MIC ([9]; Salmonella enterica, S. typhimurium 14028, MHB, 10^5 CFU/mL, 20 h 37 °C, repeated three times): 16 µM; MIC ([10]; Salmonella enterica, S. typhimurium 7731, MHB, 10^5 CFU/mL, 20 h 37 °C, repeated three times): 0.5 µM; MIC ([12]; 4 gram-positive strains, >128 apparently counted as 256, read-out: pGM (+), geometric mean of the MICs against gram-positive strains): 13.5 µM; GM MIC (range of Gram-negative and Gram-positive geometric means) ([13]; Table 2): 13.5 to 24.3 µM; MIC ([13]; read-out: tGM, geometric mean of the MICs against all the 9 bacteria): 18.7 µM; MHC5, minimum hemolytic concentration that induced ≥5% hemolysis ([14]; human red blood cells, PBS, 1 h at 37 °C, OD 570 nm, repeated three times): >128 µM; nSI (–), selectivity index MHC5/GM (−) [16]: 10.5; pSI (+), selectivity index MHC5/GM(+) [16]: 19.0; tSI, total selectivity index MHC5/TGM [16]: 13.7
